Source: ChEMBL document CHEMBL1126409, “Synthesis and biological activity of nor- and homo-5,10-dideazatetrahydrofolic acid” (Bioorg Med Chem Lett, 1992)
In brackets after ≈: the same amount, converted by molar mass.

What was measured:
[1] = tested on: CCRF-CEM; test: The compound was tested for its cytotoxicity against CCRF-CEM human leukemic cells using 72 hrs assay; type: functional, cell-based
[2] = target: T1, Trifunctional purine biosynthetic protein adenosine-3 (Mus musculus, UniProt Q64737); test: Inhibitory activity against glycinamide ribonucleotide formyltransferase (GARFT) from L1210 murine leukemic cells; type: cell-based
T1 sequence (Q64737 whole entry): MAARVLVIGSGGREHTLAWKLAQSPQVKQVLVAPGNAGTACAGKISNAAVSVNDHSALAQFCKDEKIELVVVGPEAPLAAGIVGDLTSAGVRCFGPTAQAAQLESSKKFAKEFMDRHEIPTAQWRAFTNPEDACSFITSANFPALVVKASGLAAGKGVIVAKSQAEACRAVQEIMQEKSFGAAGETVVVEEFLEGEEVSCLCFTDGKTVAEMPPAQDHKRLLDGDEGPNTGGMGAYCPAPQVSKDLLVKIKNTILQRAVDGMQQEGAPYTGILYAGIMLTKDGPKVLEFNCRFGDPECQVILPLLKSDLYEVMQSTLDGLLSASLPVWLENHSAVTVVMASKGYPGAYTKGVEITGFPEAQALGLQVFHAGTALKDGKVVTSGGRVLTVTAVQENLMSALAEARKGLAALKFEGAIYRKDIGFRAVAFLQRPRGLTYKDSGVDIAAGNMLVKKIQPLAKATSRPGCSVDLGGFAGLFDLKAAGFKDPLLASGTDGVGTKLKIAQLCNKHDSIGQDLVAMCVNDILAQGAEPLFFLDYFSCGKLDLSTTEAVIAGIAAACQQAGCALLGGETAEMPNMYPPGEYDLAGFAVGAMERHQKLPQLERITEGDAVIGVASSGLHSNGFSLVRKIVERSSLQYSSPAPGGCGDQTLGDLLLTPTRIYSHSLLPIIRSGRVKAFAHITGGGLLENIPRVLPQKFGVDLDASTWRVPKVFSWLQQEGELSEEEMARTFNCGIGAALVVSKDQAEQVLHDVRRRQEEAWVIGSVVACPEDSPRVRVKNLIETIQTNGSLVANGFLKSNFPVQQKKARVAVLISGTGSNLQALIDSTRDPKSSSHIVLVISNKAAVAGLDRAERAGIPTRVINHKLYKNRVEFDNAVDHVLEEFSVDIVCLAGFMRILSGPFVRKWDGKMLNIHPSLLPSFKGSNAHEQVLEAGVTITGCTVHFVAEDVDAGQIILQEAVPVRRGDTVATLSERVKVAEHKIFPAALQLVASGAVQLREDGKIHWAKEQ

| Structure (SMILES) | IC50 [1] | Ki [2] |
| --- | --- | --- |
| Nc1nc2c(c(=O)[nH]1)C[C@@H](CCc1ccc(C(=O)N[C@@H](CCC(=O)O)C(=O)O)cc1)CN2 [LOMETREXOL] | 7 ng/mL (≈ 0.0158 µM) | 120 nM |
| Nc1nc(O)c2c(n1)NCC(Cc1ccc(C(=O)N[C@H](CCC(=O)O)C(=O)O)cc1)C2 (stereo not given in full) | 26 ng/mL (≈ 0.0605 µM) | 0.00063 nM |
| Nc1nc(O)c2c(n1)NCC(CCCc1ccc(C(=O)N[C@H](CCC(=O)O)C(=O)O)cc1)C2 (stereo not given in full) | 8 ng/mL (≈ 0.0175 µM) |  |
